Active and inactive are the calls of the source. The rule behind the calls is not given here.
Tests used:
[1] = target: Histone deacetylase 1 (Homo sapiens, UniProt Q13547); test: (§1) Inhibition of C-terminal FLAG/His-tagged human recombinant HDAC1 (1 to 482 residues) expressed in baculovirus-infected Sf9 cells assessed as reduction in 7-amino-4-methylcoumarin release using fluorogenic HDAC substrate 3 measured every 5 mins by fluorescence based analysis
[2] = target: Histone deacetylase 2 (Homo sapiens, UniProt Q92769); format: cell-based, Sf9
Histone deacetylase 2, sequence (Q92769 whole entry): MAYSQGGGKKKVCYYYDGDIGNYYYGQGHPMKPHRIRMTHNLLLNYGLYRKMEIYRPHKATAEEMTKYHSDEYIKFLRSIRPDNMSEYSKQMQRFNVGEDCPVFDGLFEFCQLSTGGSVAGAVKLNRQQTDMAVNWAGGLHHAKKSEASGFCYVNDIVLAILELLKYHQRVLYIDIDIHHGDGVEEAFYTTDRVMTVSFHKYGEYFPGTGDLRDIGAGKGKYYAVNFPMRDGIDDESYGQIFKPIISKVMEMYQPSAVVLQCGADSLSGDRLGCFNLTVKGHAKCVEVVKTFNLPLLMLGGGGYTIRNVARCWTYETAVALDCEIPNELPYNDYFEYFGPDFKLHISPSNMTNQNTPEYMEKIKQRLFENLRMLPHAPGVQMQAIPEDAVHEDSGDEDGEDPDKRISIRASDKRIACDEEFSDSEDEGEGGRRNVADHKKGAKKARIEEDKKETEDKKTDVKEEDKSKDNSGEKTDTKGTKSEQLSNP

[3] = target: Histone deacetylase 3/Nuclear receptor corepressor 2 (HDAC3/NCoR2) (Homo sapiens, UniProt O15379); test: as §1, with “His-tagged” for “FLAG/His-tagged”, “full length HDAC3” for “HDAC1”, “428 residues)/N-terminal GST-tagged human recombinant NCOR2 (395 to 489” for “482”
Histone deacetylase 3/Nuclear receptor corepressor 2 (HDAC3/NCoR2), sequence (O15379 whole entry, the tested form may be a part): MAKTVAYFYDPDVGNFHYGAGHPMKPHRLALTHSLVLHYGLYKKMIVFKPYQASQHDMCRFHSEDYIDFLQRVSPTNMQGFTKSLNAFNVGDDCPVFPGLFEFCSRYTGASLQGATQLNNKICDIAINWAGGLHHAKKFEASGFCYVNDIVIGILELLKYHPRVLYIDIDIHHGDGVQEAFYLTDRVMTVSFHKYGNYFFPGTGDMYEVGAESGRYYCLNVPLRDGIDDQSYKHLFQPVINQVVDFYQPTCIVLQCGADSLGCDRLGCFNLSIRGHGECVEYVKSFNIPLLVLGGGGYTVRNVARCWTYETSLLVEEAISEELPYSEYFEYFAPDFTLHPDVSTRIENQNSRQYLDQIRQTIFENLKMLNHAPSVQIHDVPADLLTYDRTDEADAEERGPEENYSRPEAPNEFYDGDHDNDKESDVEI
Histone deacetylase 3/Nuclear receptor corepressor 2 (HDAC3/NCoR2), sequence (Q9Y618 whole entry, further chain, the tested form may be a part): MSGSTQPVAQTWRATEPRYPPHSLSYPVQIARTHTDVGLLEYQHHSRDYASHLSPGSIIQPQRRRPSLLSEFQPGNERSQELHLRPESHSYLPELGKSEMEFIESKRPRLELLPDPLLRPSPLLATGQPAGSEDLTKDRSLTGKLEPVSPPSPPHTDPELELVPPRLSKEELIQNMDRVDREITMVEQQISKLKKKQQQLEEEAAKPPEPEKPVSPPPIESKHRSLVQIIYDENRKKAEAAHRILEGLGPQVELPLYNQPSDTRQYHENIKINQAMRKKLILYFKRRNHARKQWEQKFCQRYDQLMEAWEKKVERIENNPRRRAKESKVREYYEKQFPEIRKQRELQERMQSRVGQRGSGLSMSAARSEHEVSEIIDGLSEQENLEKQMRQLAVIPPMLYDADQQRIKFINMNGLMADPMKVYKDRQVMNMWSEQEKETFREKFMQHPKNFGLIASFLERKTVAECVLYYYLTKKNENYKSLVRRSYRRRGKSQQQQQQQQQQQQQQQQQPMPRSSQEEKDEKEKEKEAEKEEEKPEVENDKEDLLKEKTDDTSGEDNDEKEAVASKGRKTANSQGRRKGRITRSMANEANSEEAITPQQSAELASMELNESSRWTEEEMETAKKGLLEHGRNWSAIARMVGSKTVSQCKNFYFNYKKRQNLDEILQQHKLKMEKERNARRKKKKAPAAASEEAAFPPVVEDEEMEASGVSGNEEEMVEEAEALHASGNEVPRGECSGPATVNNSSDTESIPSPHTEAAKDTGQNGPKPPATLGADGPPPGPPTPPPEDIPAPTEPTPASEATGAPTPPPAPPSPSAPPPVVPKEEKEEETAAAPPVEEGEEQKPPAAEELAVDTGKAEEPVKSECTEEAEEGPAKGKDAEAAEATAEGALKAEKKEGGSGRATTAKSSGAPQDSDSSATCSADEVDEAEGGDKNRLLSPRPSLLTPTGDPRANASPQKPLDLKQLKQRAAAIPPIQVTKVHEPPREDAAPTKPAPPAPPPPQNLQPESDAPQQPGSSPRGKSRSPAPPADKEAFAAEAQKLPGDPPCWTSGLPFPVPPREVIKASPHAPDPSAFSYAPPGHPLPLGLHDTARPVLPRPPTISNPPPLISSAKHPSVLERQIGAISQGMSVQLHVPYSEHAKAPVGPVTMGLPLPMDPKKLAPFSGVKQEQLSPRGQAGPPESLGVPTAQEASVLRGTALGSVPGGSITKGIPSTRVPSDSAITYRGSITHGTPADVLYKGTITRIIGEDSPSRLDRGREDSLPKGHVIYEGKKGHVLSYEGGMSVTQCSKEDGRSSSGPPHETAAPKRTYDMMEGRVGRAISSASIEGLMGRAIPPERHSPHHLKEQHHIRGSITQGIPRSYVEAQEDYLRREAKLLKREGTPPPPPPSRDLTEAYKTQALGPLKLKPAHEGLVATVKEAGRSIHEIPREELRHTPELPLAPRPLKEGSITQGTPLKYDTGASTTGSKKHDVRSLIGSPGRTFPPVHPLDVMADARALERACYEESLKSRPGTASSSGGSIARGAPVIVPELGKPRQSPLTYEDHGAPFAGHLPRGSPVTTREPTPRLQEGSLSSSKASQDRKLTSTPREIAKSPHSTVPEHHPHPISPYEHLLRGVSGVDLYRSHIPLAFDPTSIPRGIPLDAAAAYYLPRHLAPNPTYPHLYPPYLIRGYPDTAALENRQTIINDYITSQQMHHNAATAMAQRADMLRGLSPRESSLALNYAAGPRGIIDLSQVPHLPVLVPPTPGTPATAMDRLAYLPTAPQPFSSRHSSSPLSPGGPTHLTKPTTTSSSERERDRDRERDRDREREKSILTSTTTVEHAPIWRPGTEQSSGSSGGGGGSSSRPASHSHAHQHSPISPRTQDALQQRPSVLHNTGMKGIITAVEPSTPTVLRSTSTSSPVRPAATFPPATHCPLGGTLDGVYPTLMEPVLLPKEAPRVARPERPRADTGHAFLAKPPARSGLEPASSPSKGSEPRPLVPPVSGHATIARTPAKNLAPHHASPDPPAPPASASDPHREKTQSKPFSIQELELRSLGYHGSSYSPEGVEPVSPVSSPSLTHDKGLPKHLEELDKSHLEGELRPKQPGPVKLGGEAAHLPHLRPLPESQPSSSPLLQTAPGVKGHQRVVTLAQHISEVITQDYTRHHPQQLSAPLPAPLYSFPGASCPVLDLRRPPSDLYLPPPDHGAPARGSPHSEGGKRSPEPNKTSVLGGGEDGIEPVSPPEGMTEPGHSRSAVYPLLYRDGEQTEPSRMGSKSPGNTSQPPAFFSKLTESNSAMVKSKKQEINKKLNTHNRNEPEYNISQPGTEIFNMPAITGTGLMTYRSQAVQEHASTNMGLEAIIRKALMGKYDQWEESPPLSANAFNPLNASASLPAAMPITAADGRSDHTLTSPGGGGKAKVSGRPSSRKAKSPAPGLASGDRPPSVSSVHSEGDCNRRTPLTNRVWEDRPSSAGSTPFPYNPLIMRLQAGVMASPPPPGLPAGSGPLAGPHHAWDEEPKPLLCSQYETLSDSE

[4] = target: Histone deacetylase 4 (Homo sapiens, UniProt P56524); test: Inhibition of N-terminal GST-tagged/C-terminal His-tagged human recombinant HDAC4 (627 to 1084 residues) expressed in baculovirus-infected Sf9 cells assessed as reduction in 7-amino-4-methylcoumarin release measured every 5 mins by fluorescence based analysis
[5] = target: T1, Histone deacetylase 5 (Homo sapiens, UniProt Q9UQL6); test: Inhibition of N-terminal GST-tagged human recombinant full length HDAC5 expressed in baculovirus-infected Sf9 cells assessed as reduction in 7-amino-4-methylcoumarin release measured every 5 mins by fluorescence based analysis
[6] = target: T2, Histone deacetylase 7 (Homo sapiens, UniProt Q8WUI4); test: Inhibition of N-terminal GST-tagged human HDAC7 (518 to end residues) expressed in baculovirus-infected Sf9 cells assessed as reduction in 7-amino-4-methylcoumarin release measured every 5 mins by fluorescence based analysis
T2 sequence (Q8WUI4 whole entry): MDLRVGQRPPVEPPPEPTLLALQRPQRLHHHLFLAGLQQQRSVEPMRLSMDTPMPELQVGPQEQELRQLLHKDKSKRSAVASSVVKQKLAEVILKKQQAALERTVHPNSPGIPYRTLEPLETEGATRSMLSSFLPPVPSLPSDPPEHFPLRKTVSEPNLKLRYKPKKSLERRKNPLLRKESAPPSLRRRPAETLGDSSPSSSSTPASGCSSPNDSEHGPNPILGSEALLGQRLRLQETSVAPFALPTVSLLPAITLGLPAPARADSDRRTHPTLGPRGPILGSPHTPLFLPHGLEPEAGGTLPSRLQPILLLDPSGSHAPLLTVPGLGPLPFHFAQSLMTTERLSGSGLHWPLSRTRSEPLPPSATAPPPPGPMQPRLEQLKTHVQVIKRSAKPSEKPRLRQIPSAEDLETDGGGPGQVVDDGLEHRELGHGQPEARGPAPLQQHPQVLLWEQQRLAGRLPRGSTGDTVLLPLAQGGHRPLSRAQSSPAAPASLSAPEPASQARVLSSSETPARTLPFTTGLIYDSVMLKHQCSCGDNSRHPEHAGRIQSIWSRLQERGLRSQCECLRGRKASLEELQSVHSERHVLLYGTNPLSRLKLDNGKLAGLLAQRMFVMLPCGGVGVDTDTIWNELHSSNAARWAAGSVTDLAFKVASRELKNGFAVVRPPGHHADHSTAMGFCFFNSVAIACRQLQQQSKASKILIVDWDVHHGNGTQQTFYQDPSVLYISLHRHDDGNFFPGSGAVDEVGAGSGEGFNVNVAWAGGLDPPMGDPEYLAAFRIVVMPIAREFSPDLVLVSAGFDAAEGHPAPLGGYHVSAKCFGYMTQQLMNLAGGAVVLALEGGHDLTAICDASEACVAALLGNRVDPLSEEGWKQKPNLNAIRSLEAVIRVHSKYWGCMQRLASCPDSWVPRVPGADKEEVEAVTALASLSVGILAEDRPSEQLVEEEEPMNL

[7] = target: Histone deacetylase 9 (Homo sapiens, UniProt Q9UKV0); test: Inhibition of C-terminal His-tagged human HDAC9 (604 to 1066 residues) expressed in baculovirus-infected Sf9 cells assessed as reduction in 7-amino-4-methylcoumarin release measured every 5 mins by fluorescence based analysis
Histone deacetylase 9, sequence (Q9UKV0 whole entry, the tested form may be a part): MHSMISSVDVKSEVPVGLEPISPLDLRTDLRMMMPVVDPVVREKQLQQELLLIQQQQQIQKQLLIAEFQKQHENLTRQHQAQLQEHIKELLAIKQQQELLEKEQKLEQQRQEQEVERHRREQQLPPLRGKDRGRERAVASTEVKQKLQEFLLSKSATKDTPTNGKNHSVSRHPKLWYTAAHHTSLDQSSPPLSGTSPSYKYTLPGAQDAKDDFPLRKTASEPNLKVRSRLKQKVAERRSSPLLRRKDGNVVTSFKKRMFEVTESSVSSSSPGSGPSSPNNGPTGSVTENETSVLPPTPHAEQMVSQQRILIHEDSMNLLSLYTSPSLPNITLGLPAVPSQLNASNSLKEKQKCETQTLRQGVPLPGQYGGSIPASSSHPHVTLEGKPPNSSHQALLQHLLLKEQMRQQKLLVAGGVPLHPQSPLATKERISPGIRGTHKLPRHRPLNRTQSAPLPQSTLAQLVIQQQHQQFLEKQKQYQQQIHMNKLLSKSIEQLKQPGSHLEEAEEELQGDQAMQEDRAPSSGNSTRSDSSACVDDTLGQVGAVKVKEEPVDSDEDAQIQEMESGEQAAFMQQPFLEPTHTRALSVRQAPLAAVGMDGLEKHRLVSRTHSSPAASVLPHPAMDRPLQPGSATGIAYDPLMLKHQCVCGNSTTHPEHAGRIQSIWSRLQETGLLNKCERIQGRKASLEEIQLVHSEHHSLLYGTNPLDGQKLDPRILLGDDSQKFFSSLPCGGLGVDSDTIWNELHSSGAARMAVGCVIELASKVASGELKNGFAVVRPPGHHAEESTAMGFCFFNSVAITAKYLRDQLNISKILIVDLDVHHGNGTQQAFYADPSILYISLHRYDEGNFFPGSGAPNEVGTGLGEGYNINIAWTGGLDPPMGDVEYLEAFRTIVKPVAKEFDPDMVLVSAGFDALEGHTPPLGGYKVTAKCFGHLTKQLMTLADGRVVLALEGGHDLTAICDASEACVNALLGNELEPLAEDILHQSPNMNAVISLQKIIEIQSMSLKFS

[8] = tested on: MCF7; test: Antiproliferative activity against human MCF7 cells assessed as reduction in cell viability incubated for 48 hrs by SRB assay; format: functional, cell-based; settings: MCF7, 48 h
[9] = tested on: A549; test: Antiproliferative activity against human A549 cells assessed as reduction in cell viability incubated for 48 hrs by SRB assay; format: functional, cell-based; settings: A549, 48 h
[10] = tested on: MCF7; test: Induction of apoptosis in human MCF7 cells assessed as increase in caspase 3/7 activity at 1 to 3 uM measured after 48 hrs by ELISA; format: functional, cell-based; settings: dose 1-3 µM
[11] = tested on: MCF7; test: Induction of apoptosis in human MCF7 cells assessed as reduction in Bcl2 gene expression at 3 uM incubated for 24 hrs by whole transcriptome analysis; format: functional, cell-based
[12] = tested on: MCF7; test: Induction of apoptosis in human MCF7 cells assessed as reduction in Bcl3 gene expression at 3 uM incubated for 24 hrs by whole transcriptome analysis; format: functional, cell-based
[13] = tested on: MCF7; test: Induction of cell cycle arrest in human MCF7 cells assessed as accumulation at G2/M phase at 1 uM incubated for 4 hrs by PI staining based flow cytometric analysis; format: functional
[14] = tested on: MCF7; test: Induction of cell cycle arrest in human MCF7 cells assessed as accumulation at G2/M phase at 1 uM incubated for 24 hrs by PI staining based flow cytometric analysis; format: functional
[15] = tested on: MCF7; test: Induction of cell cycle arrest in human MCF7 cells assessed as accumulation at subG1 phase at 1 uM incubated for 24 to 72 hrs by PI staining based flow cytometric analysis; format: functional; settings: time 24-72 hrs
[16] = tested on: MCF7; test: Induction of cell cycle arrest in human MCF7 cells assessed downregulation of CDK2 gene expression at 3 uM incubated for 24 hrs by whole transcriptome analysis; format: functional, cell-based
[17] = tested on: MCF7; test: Induction of cell cycle arrest in human MCF7 cells assessed downregulation of CDK4 gene expression at 3 uM incubated for 24 hrs by whole transcriptome analysis; format: functional, cell-based
[18] = tested on: MCF7; test: Induction of cell cycle arrest in human MCF7 cells assessed downregulation of CDK6 gene expression at 3 uM incubated for 24 hrs by whole transcriptome analysis; format: functional, cell-based
[19] = tested on: MCF7; test: Downregulation of SIRT2 gene expression in human MCF7 cells at 3 uM incubated for 24 hrs by whole transcriptome analysis; format: functional, cell-based
[20] = tested on: MCF7; test: Downregulation of SIRT4 gene expression in human MCF7 cells at 3 uM incubated for 24 hrs by whole transcriptome analysis; format: functional, cell-based
[21] = tested on: MCF7; test: Downregulation of NFkB2 gene expression in human MCF7 cells at 3 uM incubated for 24 hrs by whole transcriptome analysis; format: functional, cell-based
[22] = tested on: MCF7; test: Induction of cell cycle arrest in human MCF7 cells assessed downregulation of CDK1 gene expression at 3 uM incubated for 24 hrs by whole transcriptome analysis; format: functional, cell-based
[23] = tested on: MCF7; test: Induction of cell cycle arrest in human MCF7 cells assessed downregulation of E2F1 gene expression at 3 uM incubated for 24 hrs by whole transcriptome analysis; format: functional, cell-based
[24] = tested on: MCF7; test: Induction of cell cycle arrest in human MCF7 cells assessed downregulation of RB1 gene expression at 3 uM incubated for 24 hrs by whole transcriptome analysis; format: functional, cell-based
[25] = tested on: MCF7; test: Induction of apoptosis in human MCF7 cells assessed as downregulation of c-Myc gene expression at 1 uM measured after 24 hrs whole transcriptome analysis; format: functional, cell-based
[26] = tested on: MCF7; test: Induction of apoptosis in human MCF7 cells assessed as downregulation of c-Myc protein expression at 1 to 3 uM measured after 48 hrs western blot analysis; format: functional, cell-based; settings: dose 1-3 µM
[27] = tested on: MCF7; test: Upregulation of NFkB2 gene expression in human MCF7 cells at 3 uM incubated for 24 hrs by whole transcriptome analysis; format: functional, cell-based
[28] = target: Histone deacetylase (Homo sapiens) (UniProt Q13547+O15379+Q9UBN7+Q92769+Q9UQL6+Q8WUI4+Q9BY41+Q96DB2+P56524+Q9UKV0+Q969S8); test: Inhibition of HDAC in human MCF7 cells assessed as increase in acetylated histone H4 mRNA level at 3 uM incubated for 24 hrs by whole transcriptome analysis; format: cell-based
[29] = tested on: MCF7; test: Induction of cell cycle arrest in human MCF7 cells assessed as accumulation at G1/S phase at 1 uM incubated for 4 hrs by PI staining based flow cytometric analysis; format: functional
[30] = target: T1, Histone deacetylase 5; test: Potency index, ratio of vorinostat IC50 to test compound IC50 for Inhibition of N-terminal GST-tagged human recombinant full length HDAC5 expressed in baculovirus-infected Sf9 cells assessed as reduction in 7-amino-4-methylcoumarin release measured every 5 mins by fluorescence based analysis
[31] = tested on: MCF7; test: Upregulation of SIRT2 gene expression in human MCF7 cells at 3 uM incubated for 24 hrs by whole transcriptome analysis; format: functional, cell-based
[32] = tested on: MCF7; test: Upregulation of SIRT4 gene expression in human MCF7 cells at 3 uM incubated for 24 hrs by whole transcriptome analysis; format: functional, cell-based

Histone deacetylase 1, sequence (Q13547 whole entry, the tested form may be a part): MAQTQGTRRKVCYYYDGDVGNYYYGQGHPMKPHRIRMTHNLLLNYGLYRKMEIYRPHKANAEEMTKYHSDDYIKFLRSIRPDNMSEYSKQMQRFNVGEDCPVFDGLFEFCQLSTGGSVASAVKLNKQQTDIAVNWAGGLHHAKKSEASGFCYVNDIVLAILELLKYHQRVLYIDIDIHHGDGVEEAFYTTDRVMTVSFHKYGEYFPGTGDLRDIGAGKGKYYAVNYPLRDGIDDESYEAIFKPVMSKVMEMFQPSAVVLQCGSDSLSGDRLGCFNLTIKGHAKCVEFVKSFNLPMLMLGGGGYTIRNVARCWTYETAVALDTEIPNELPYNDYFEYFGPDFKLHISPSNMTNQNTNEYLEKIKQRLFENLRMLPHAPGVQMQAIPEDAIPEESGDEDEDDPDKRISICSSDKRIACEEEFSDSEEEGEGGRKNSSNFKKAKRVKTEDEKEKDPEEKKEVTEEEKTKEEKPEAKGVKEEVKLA

IC50 [1] [µM]	IC50 [2] [µM]	IC50 [3] [µM]	IC50 [4] [µM]	IC50 [5] [µM]	IC50 [6] [µM]	IC50 [7] [µM]	IC50 [8] [µM]	IC50 [9] [µM]	Compound	Activity [10]	Activity [11]	Activity [12]	Activity [13]	Activity [14]	Activity [15]	Activity [16]	Activity [17]	inhibition [19]	inhibition [20]	Activity [25]	also measured
> 10	> 10	2.12	> 10	12.4	6.1	1.3	0.7	> 10	CC(C)(C)Nc1c(-c2cccc(C(=O)Nc3ccc(F)cc3N)c2)nc2ccccn12	Active	Active	Active	Active	Active	Active	–	–	Active	Active	Active	Activity [26]: Active; Activity [27]: Active; inhibition [28]: Active
> 10	> 10	> 10	1.65	0.31	4.85	0.818	> 10	> 10	CC(C)(C)Nc1c(-c2cccc(-c3nc4cc(-c5noc(C(F)(F)F)n5)ccc4[nH]3)c2)nc2ccccn12	Active	Active	Active	–	–	inactive	Active	Active	Active	Active	Active	Activity [29]: Active; Activity [18]: Active; inhibition [21]: Active; Activity [22]: Active; Activity [23]: Active; Activity [24]: Active; Ratio IC50 [30]: > 33
–	–	–	–	–	–	–	–	–	O=C(CCCCCCC(=O)Nc1ccccc1)NO	Active	–	inactive	–	Active	–	–	–	–	–	Active	Activity [26]: Active; Activity [27]: Active; Activity [29]: Active; Activity [31]: Active; Activity [32]: Active

Compound	IC50 [1] [µM]	IC50 [2] [µM]	IC50 [3] [µM]	IC50 [4] [µM]	IC50 [5] [µM]	IC50 [6] [µM]	IC50 [7] [µM]	IC50 [8] [µM]	IC50 [9] [µM]	Activity [10]	Activity [11]	Activity [12]	Activity [13]	Activity [14]	Activity [15]	Activity [16]	Activity [17]	inhibition [19]	inhibition [20]	Activity [25]	also measured
CC(C)(C)Nc1c(-c2ccc(-c3noc(C(F)(F)F)n3)cc2)nc2ccccn12	> 10	> 10	> 10	3.58	0.812	6.9	2.31	> 10	> 10	Active	Active	Active	Active	Active	Active	Active	Active	Active	Active	–	Activity [18]: Active; inhibition [21]: Active; Activity [22]: Active; Activity [23]: Active; Activity [24]: Active

From ChEMBL document CHEMBL4811298, “Discovery of novel class of histone deacetylase inhibitors as potential anticancer agents” (Bioorg Med Chem, 2021)
